This is an account of results in patent US10206394B2, “Herbicidal compounds” (Syngenta Participations AG, priority 2014, dated 2019).

Holding throughout (test): Glasshouse assay for herbicidal activity (pre- and post-emergence), percentage phytotoxicity
Holding throughout (type): in vivo

Assay [1] has as its system Avena fatua (AVEFA). The conditions noted are these: Avena fatua. Summed up:
(§1)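 Seeds were sown in standard soil in pots and grown one day (pre-emergence) or about 12 days (post-emergence) before herbicide application. Plants were kept at 24/18 °C (warm-climate) or 20/16 °C (cool-climate) day/night, 16 h light, 65% humidity, watered twice daily, and damage was scored visually at 15 DAA (POST) or 20 DAA (PRE).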

Assay [2] has as its system Lolium perenne (LOLPE). To be noted: Lolium perenne. The method in brief: as §1
Assay [3] concerns Echinochloa crus-galli (ECHCG). The conditions noted are these: Echinochloa crus-galli. The method in brief: as §1
Assay [4] has as its system Alopecurus myosuroides (ALOMY). The conditions noted are these: Alopecurus myosuroides. Summed up:
as §1

Where [5] appears, read: post-emergence, 360 h, POST-emergence, rate 250 g/ha, visual score 15 DAA (100%=total damage, 0%=no damage), read-out: Post-emergence herbicidal activity (percentage phytotoxicity) AVEFA POST.
[6] abbreviates: pre-emergence, 480 h, PRE-emergence, rate 250 g/ha, visual score 20 DAA (100%=total damage, 0%=no damage), read-out: Pre-emergence herbicidal activity (percentage phytotoxicity) AVEFA PRE.
The mark [7] stands for this setting: post-emergence, 360 h, POST-emergence, rate 250 g/ha, visual score 15 DAA (100%=total damage, 0%=no damage), read-out: Post-emergence herbicidal activity (percentage phytotoxicity) LOLPE POST.
The mark [8] stands for this setting: pre-emergence, 480 h, PRE-emergence, rate 250 g/ha, visual score 20 DAA (100%=total damage, 0%=no damage), read-out: Pre-emergence herbicidal activity (percentage phytotoxicity) LOLPE PRE.
[9] abbreviates: post-emergence, 360 h, POST-emergence, rate 250 g/ha, visual score 15 DAA (100%=total damage, 0%=no damage), read-out: Post-emergence herbicidal activity (percentage phytotoxicity) ECHCG POST.
Setting [10] is: pre-emergence, 480 h, PRE-emergence, rate 250 g/ha, visual score 20 DAA (100%=total damage, 0%=no damage), read-out: Pre-emergence herbicidal activity (percentage phytotoxicity) ECHCG PRE.
[11] abbreviates: post-emergence, 360 h, POST-emergence, rate 250 g/ha, visual score 15 DAA (100%=total damage, 0%=no damage), read-out: Post-emergence herbicidal activity (percentage phytotoxicity) ALOMY POST.
Where [12] appears, read: pre-emergence, 480 h, PRE-emergence, rate 250 g/ha, visual score 20 DAA (100%=total damage, 0%=no damage), read-out: Pre-emergence herbicidal activity (percentage phytotoxicity) ALOMY PRE.
Where [13] appears, read: post-emergence, 360 h, Rate 250 g/ha, post-emergence, assessed visually 15 DAA, 100%=total damage, 0%=no damage, read-out: Post-emergence herbicidal activity (percentage phytotoxicity) AVEFA POST.
The mark [14] stands for this setting: pre-emergence, 480 h, Rate 250 g/ha, pre-emergence, assessed visually 20 DAA, 100%=total damage, 0%=no damage, read-out: Pre-emergence herbicidal activity (percentage phytotoxicity) AVEFA PRE.
The mark [15] stands for this setting: post-emergence, 360 h, Rate 250 g/ha, post-emergence, assessed visually 15 DAA, 100%=total damage, 0%=no damage, read-out: Post-emergence herbicidal activity (percentage phytotoxicity) LOLPE POST.
[16] abbreviates: pre-emergence, 480 h, Rate 250 g/ha, pre-emergence, assessed visually 20 DAA, 100%=total damage, 0%=no damage, read-out: Pre-emergence herbicidal activity (percentage phytotoxicity) LOLPE PRE.
The mark [17] stands for this setting: post-emergence, 360 h, Rate 250 g/ha, post-emergence, assessed visually 15 DAA, 100%=total damage, 0%=no damage, read-out: Post-emergence herbicidal activity (percentage phytotoxicity) ECHCG POST.
Where [18] appears, read: pre-emergence, 480 h, Rate 250 g/ha, pre-emergence, assessed visually 20 DAA, 100%=total damage, 0%=no damage, read-out: Pre-emergence herbicidal activity (percentage phytotoxicity) ECHCG PRE.
[19] abbreviates: post-emergence, 360 h, Rate 250 g/ha, post-emergence, assessed visually 15 DAA, 100%=total damage, 0%=no damage, read-out: Post-emergence herbicidal activity (percentage phytotoxicity) ALOMY POST.
The mark [20] stands for this setting: pre-emergence, 480 h, Rate 250 g/ha, pre-emergence, assessed visually 20 DAA, 100%=total damage, 0%=no damage, read-out: Pre-emergence herbicidal activity (percentage phytotoxicity) ALOMY PRE.
[21] abbreviates: post-emergence, 360 h, 250 g/ha, post-emergence, 15 DAA, visual assessment (100%=total damage, 0%=no damage), read-out: Post-emergence herbicidal activity (percentage phytotoxicity) AVEFA POST.
[22] abbreviates: pre-emergence, 480 h, 250 g/ha, pre-emergence, 20 DAA, visual assessment (100%=total damage, 0%=no damage), read-out: Pre-emergence herbicidal activity (percentage phytotoxicity) AVEFA PRE.
The mark [23] stands for this setting: post-emergence, 360 h, 250 g/ha, post-emergence, 15 DAA, visual assessment (100%=total damage, 0%=no damage), read-out: Post-emergence herbicidal activity (percentage phytotoxicity) LOLPE POST.
[24] abbreviates: pre-emergence, 480 h, 250 g/ha, pre-emergence, 20 DAA, visual assessment (100%=total damage, 0%=no damage), read-out: Pre-emergence herbicidal activity (percentage phytotoxicity) LOLPE PRE.
Setting [25] is: post-emergence, 360 h, 250 g/ha, post-emergence, 15 DAA, visual assessment (100%=total damage, 0%=no damage), read-out: Post-emergence herbicidal activity (percentage phytotoxicity) ECHCG POST.
Where [26] appears, read: pre-emergence, 480 h, 250 g/ha, pre-emergence, 20 DAA, visual assessment (100%=total damage, 0%=no damage), read-out: Pre-emergence herbicidal activity (percentage phytotoxicity) ECHCG PRE.
[27] abbreviates: post-emergence, 360 h, 250 g/ha, post-emergence, 15 DAA, visual assessment (100%=total damage, 0%=no damage), read-out: Post-emergence herbicidal activity (percentage phytotoxicity) ALOMY POST.
Setting [28] is: pre-emergence, 480 h, 250 g/ha, pre-emergence, 20 DAA, visual assessment (100%=total damage, 0%=no damage), read-out: Pre-emergence herbicidal activity (percentage phytotoxicity) ALOMY PRE.

Like-named read-outs stand apart in the source and are kept apart here.

Take `Cc1cc(-c2ccc(C#N)cn2)cc(C)c1C1C(=O)CC(CC(=O)NCc2cccc(Cl)c2)C1=O` (stereo not drawn) [Compound B295]: the pest or weed control at 250 g/ha was determined as 100% in assay [1] (setting [5]); 60% in assay [1] (setting [6]); 90% in assay [2] (setting [7]); 90% in assay [2] (setting [8]); 100% in assay [3] (setting [9]); 90% in assay [3] (setting [10]). The pest or weed control at 250 g/ha in assay [4] (setting [11]) is 90%; in assay [4] (setting [12]), 80%.
`C=CCCNC(=O)CC1CC(=O)C(c2c(C)cc(-c3ncc(Cl)cc3F)cc2C)C1=O` (stereo not drawn) [Compound A111]: the pest or weed control at 250 g/ha in assay [1] (setting [13]) was found to be 100%; in assay [1] (setting [14]), 90%; in assay [2] (setting [15]) it was 100%; in assay [2] (setting [16]) it was 100%; in assay [3] (setting [17]), 100%; in assay [3] (setting [18]), 100%. Besides, the pest or weed control at 250 g/ha in assay [4] (setting [19]) was determined as 100%; in assay [4] (setting [20]), 90%.
Turning to `CCCNC(=O)CC1CC(=O)C(c2c(C)cc(Br)cc2C)C1=O` (stereo not drawn) [Compound B145], the pest or weed control at 250 g/ha in assay [1] (setting [21]) was found to be 90%; in assay [1] (setting [22]) it was 60%; in assay [2] (setting [23]), 90%; in assay [2] (setting [24]), 90%; in assay [3] (setting [25]), 80%; in assay [3] (setting [26]), 80%. Besides, the pest or weed control at 250 g/ha in assay [4] (setting [27]) stood at 80%; in assay [4] (setting [28]), 70%.
In the case of `CCCNC(=O)CC1CC(=O)C(c2c(C)cccc2CC)C1=O` (stereo not drawn) [Compound B150], the pest or weed control at 250 g/ha in assay [1] (setting [21]) turned out to be 100%; in assay [1] (setting [22]), 90%; in assay [2] (setting [23]), 100%; in assay [2] (setting [24]) it was 100%; in assay [3] (setting [25]), 100%; in assay [3] (setting [26]), 100%. In addition, the pest or weed control at 250 g/ha in assay [4] (setting [27]) and in assay [4] (setting [28]) was 100% throughout.
Regarding `CCCN(CC1CC1)C(=O)CC1CC(=O)C(c2c(C)cc(C)cc2C)C1=O` (stereo not drawn) [Compound B79], the pest or weed control at 250 g/ha in assay [1] (setting [21]) is 10%; in assay [1] (setting [22]) it was 0%; in assay [2] (setting [23]), 80%; in assay [2] (setting [24]), 80%; in assay [3] (setting [25]) it was 60%; in assay [3] (setting [26]), 80%. Besides, the pest or weed control at 250 g/ha in assay [4] (setting [27]) and in assay [4] (setting [28]) was 60% throughout.
For the compound `CCC(C)NC(=O)CC1CC(=O)C(c2c(C)cc(-c3ncc(Cl)cc3F)cc2C)C1=O` (stereo not drawn) [Compound B119], the pest or weed control at 250 g/ha is 100% in assay [1] (setting [21]); 90% in assay [1] (setting [22]); 100% in assay [2] (setting [23]); 100% in assay [2] (setting [24]); 100% in assay [3] (setting [25]); 100% in assay [3] (setting [26]). Also, the pest or weed control at 250 g/ha in assay [4] (setting [27]) and in assay [4] (setting [28]) was 100% in each case.
With `Cc1cc(-c2ncc(Cl)cc2F)cc(C)c1C1C(=O)CC(CC(N)=O)C1=O` (stereo not drawn) [Compound B53], the pest or weed control at 250 g/ha turned out to be 100% in assay [1] (setting [21]); 100% in assay [1] (setting [22]); 100% in assay [2] (setting [23]); 90% in assay [2] (setting [24]); 100% in assay [3] (setting [25]); 90% in assay [3] (setting [26]). Also, the pest or weed control at 250 g/ha in assay [4] (setting [27]) and in assay [4] (setting [28]) was 90% in each case.
With `Cc1cc(-c2ncc(F)cn2)cc(C)c1C1C(=O)CC(CC(=O)NCc2ccccc2)C1=O` (stereo not drawn) [Compound B263], the pest or weed control at 250 g/ha is 100% in assay [1] (setting [5]); 80% in assay [1] (setting [6]); 100% in assay [2] (setting [7]); 80% in assay [2] (setting [8]); 100% in assay [3] (setting [9]); 100% in assay [3] (setting [10]). Also, the pest or weed control at 250 g/ha in assay [4] (setting [11]) amounted to 100%; in assay [4] (setting [12]), 90%.
With `Cc1cc(-c2ncc(Cl)cc2F)cc(C)c1C1C(=O)CC(CC(=O)NCc2cccc(Cl)c2)C1=O` (stereo not drawn) [Compound A117], the pest or weed control at 250 g/ha in assay [1] (setting [13]) stood at 100%; in assay [1] (setting [14]), 70%; in assay [2] (setting [15]) it was 100%; in assay [2] (setting [16]) it was 90%; in assay [3] (setting [17]), 100%; in assay [3] (setting [18]) it was 100%. The pest or weed control at 250 g/ha in assay [4] (setting [19]) came out at 90%; in assay [4] (setting [20]), 70%.
`COc1ccc(NC(=O)CC2CC(=O)C(c3c(C)cc(C)cc3C)C2=O)cc1OC` (stereo not drawn) [Compound B2]: the pest or weed control at 250 g/ha turned out to be 30% in assay [1] (setting [21]); 60% in assay [1] (setting [22]); 30% in assay [2] (setting [23]); 80% in assay [2] (setting [24]); 10% in assay [3] (setting [25]); 80% in assay [3] (setting [26]). Further, the pest or weed control at 250 g/ha in assay [4] (setting [27]) and in assay [4] (setting [28]) was 40% throughout.
Turning to `Cc1cc(-c2ccc(Cl)cn2)cc(C)c1C1C(=O)CC(CC(=O)NCc2ncccc2Cl)C1=O` (stereo not drawn) [Compound A132], the pest or weed control at 250 g/ha amounted to 100% in assay [1] (setting [13]); 90% in assay [1] (setting [14]); 100% in assay [2] (setting [15]); 90% in assay [2] (setting [16]); 100% in assay [3] (setting [17]); 100% in assay [3] (setting [18]). Also, the values for the pest or weed control at 250 g/ha in assay [4] (setting [19]) and in assay [4] (setting [20]) were 100% and 90%, respectively.
As for `COc1ccc(CNC(=O)CC2CC(=O)C(c3c(C)cc(OCC(F)(F)F)cc3C)C2=O)cc1` (stereo not drawn) [Compound B206], the pest or weed control at 250 g/ha in assay [1] (setting [5]) came to 90%; in assay [1] (setting [6]), 70%; in assay [2] (setting [7]), 90%; in assay [2] (setting [8]), 80%; in assay [3] (setting [9]) it was 90%; in assay [3] (setting [10]), 90%. Besides, the pest or weed control at 250 g/ha in assay [4] (setting [11]) is 90%; in assay [4] (setting [12]), 80%.
